Measurements as given in paper PMC7838189, “Natural podophyllotoxin analog 4DPG attenuates EMT and colorectal cancer progression via activation of checkpoint kinase 2” (Cell Death Discovery, 2021).

Columns and labels:
[1] = tested on: HCT-116/5-FU-R cells; assay: Matrigel invasion assay; type: cell-based; conditions: PV1019-treated, 48 h
From the text: (§1) To examine whether 4DPG-mediated repression of Vimentin and invasiveness is a Chk2-dependent process, we performed genetic silencing of endogenous Chk2 in the 5-FU-R cells using target-specific SiRNAs.
Fig. 3 Chk2-dependent role of 4DPG in modulating p53 and repressing Vimentin expression in 5-FU-R cells. A Immunocytochemistry results showing the Vimentin expression level in SW-620/5-FU-R cells treated/transfected with scramble, SiChk2, scramble plus 4DPG, SiChk2 plus 4DPG, vehicle, PV1019, 4DPG, and PV1019 plus 4DPG for 48 h. Scale bars: 50 µm. […] C Matrigel invasion assay results showing invaded HCT-116/5-FU-R and SW-620/5-FU-R cells following 48 h of transient transfection with GFP and GFP-Chk2 plasmid construct. Scale bars: 50 µm. D Quantification of the number of invaded cells per field from the above experimental conditions. n = 3, error bars, mean ± SD; *P < 0.05, ***P < 0.001. E Immunocytochemistry results displaying Vimentin expression levels in HCT-116/5-FU-R and SW-620/5-FU-R cells after 48 h of transient transfection with pCDNA3 and/or HA-Chk2 plasmid construct. Scale bars: 50 µm. F Immunoprecipitation with Vimentin or p53 followed by western blotting analysis of p53 in SW-620/5-FU-R cells treated with vehicle and/or 4DPG (300 nM) for 48 h. […]

[2] = tested on: SW-620/5-FU-R cells; assay: Immunocytochemistry of Vimentin; type: cell-based; conditions: PV1019 alone, 48 h
From the text: 4DPG, a podophyllotoxin class of natural product anticancer compound (Supplementary Fig. S2A) has been recently described by our research group for its potent antitumor and anti-metastatic properties against aggressive cancers[31],[32]. Further, 4DPG augments phosphorylation and activation of Chk2 (Thr68) leading to suppression of EMT and invasiveness of p53-defective cancer cells. To investigate the effect of 4DPG on phosphorylation and expression levels of Chk2 in HCT-116/5-FU-R, SW-620/5-FU-R, and HT-29/5-FU-R cells, we treated these cells for 48 h with increasing concentrations of the compound, and whole-cell lysates were subjected to western blotting analysis. […] To determine the effect of 4DPG on the invasion abilities of these 5-FU-R cells, we performed in situ fluorescent gelatin degradation assay following our pre-standardized protocol[31],[37]. In physiological conditions, this assay mimics the extracellular matrix degradation by aggressive tumor cells undergoing invasion–metastasis process.
as §1
Fig. 3 Chk2-dependent role of 4DPG in modulating p53 and repressing Vimentin expression in 5-FU-R cells. A Immunocytochemistry results showing the Vimentin expression level in SW-620/5-FU-R cells treated/transfected with scramble, SiChk2, scramble plus 4DPG, SiChk2 plus 4DPG, vehicle, PV1019, 4DPG, and PV1019 plus 4DPG for 48 h. Scale bars: 50 µm. […] C Matrigel invasion assay results showing invaded HCT-116/5-FU-R and SW-620/5-FU-R cells following 48 h of transient transfection with GFP and GFP-Chk2 plasmid construct. Scale bars: 50 µm. D Quantification of the number of invaded cells per field from the above experimental conditions. n = 3, error bars, mean ± SD; *P < 0.05, ***P < 0.001. E Immunocytochemistry results displaying Vimentin expression levels in HCT-116/5-FU-R and SW-620/5-FU-R cells after 48 h of transient transfection with pCDNA3 and/or HA-Chk2 plasmid construct. Scale bars: 50 µm. F Immunoprecipitation with Vimentin or p53 followed by western blotting analysis of p53 in SW-620/5-FU-R cells treated with vehicle and/or 4DPG (300 nM) for 48 h. G Cytosolic (left panel) and nuclear (right panel) extracts of SW-620/5-FU-R cells treated with vehicle and/or 4DPG (300 nM) for 48 h showing protein expression of Vimentin and p53. Tubulin and lamin expression was considered as endogenous loading controls for cytosolic and nuclear fractions, respectively.
We followed the standard protocol with some modifications for immunocytochemistry[56],[58]. In brief, cells, at a density of 4 × 10^5 cells/well, were seeded over the sterile coverslips placed in six-well plates. Following the respective treatment, cells were washed thrice with PBS. Next, the cells were fixed with 4% paraformaldehyde (pH = 7.4) for 15 min, permeabilized with 0.3% Triton X-100 for 10 min, and then blocked with 1% goat serum for 30 min. Consequently, the cells were incubated with anti-Vimentin antibody overnight at 4 °C, at a dilution of 1:100, followed by washing with PBST and further incubation with secondary anti-rabbit Alexa Fluor 488 (1:750 dilution). After subsequent washing and mounting, the images were captured at ×20 magnification under Floid Cell Imaging Station (Invitrogen).

[3] = tested on: orthotopic rat colorectal carcinoma; conditions: 25 mg/kg thrice a week for 3 weeks
From the text: To examine the antitumor and anti-metastatic efficacy of 4DPG in vivo, we employed a carcinogen-induced orthotopic rat colorectal carcinoma model. […] The schematic representation briefly describes the steps involved in the generation of orthotopic colorectal tumors along with the treatment strategy and further analysis (details in “Materials and methods”). The animals were euthanized at the end of the experiment and evaluated for tumor and metastatic burden (Fig. 4A). […] To validate whether our in vitro observations on mechanistic inhibition of EMT and invasion by 4DPG hold true in vivo, we performed immunohistochemical analysis of the tumor tissues acquired from the saline and 4DPG-treated animal groups.
A Model depicting the procedure adopted for generating the carcinogen-induced orthotopic rat CRC model, treatment strategies of 4DPG, evaluation of tumor burden, and further biochemical analysis. B Representative images of large bowel showing the colorectal tumor growth in saline, 5-FU (25 mg/kg), and 4DPG (25 mg/kg) treated groups of animals. C, D Quantification of tumor volume and number of polyps per rat in above groups of animals. n = 6 rats per group, error bars: mean ± SD; *P < 0.05, **P < 0.01, ***P < 0.001. E Representative images of the lungs dissected from the above groups of animals showing metastatic tumor burden. Orange arrows indicating bumps of secondary tumors over each lobe of lungs. F, G Quantification of a number of macroscopic secondary tumors over the lung tissues and lung weight in the above groups of animals. n = 6 rats per group, error bars, mean ± SD; **P < 0.01, ***P < 0.001. […] Scale bar: 50 µm. I Western blots depicting expression of p-Chk2 (Thr68), Chk2, p53, p-Vimentin (Ser38), and Vimentin in tumor tissues obtained from saline- and 4DPG-treated groups of animals. β-Actin expression was taken as endogenous loading control. J Densitometry analysis of the above western blot bands portraying relative protein expression of the markers presented. n = 3, error bars: mean ± SD; **P < 0.01, ***P < 0.001.
Animal studies were performed following the guidelines approved by Institutional Animal Ethics Committee (IAEC No. 51/02/15) of CSIR-Indian Institute of Integrative Medicine, Jammu, India. The experiment was performed according to our standardized protocol described previously with necessary modifications. Five-weeks-old healthy male Wistar rats (body weight 150–200 g) were maintained in aseptic condition with free access to food and water. Animals were randomized into three groups, with six animals per group. All the rats received intrarectal instillation of 0.5 mL of freshly prepared 0.4% aqueous solution of N-methyl-N-nitrosourea (MNU) thrice a week for 3 weeks, for the orthotopic induction of colorectal tumors. The solution was injected using sterile syringe with attached 8-cm long rubber catheter tube inserted two-thirds into the colon lumen through anal orifice, as described previously. The animals were kept under continuous monitoring, and the body weight was measured once per week. Following 22 weeks after the initiation of MNU administration, treatment regimens were started by administering 5-FU (25 mg/kg), and 4DPG (25 mg/kg) thrice a week for 3 weeks. The control and treatment groups of animals were dosed separately by three independent investigators and the outcomes were assessed by a fourth investigator blind about the dosing process and treatment regimen.

[4] = tested on: HT-29/5-FU-R cells; assay: Acquired 5-FU resistance (MTT cytotoxicity assay); type: cell-based; conditions: cells selected with increasing 5-FU for at least 20 weeks
Method: (§2) Previously described procedure by Shukla et al. was followed with minor modifications. In brief, wild-type CRC cells (HCT-116, SW-620, and HT-29) were cultured with increasing concentrations of 5-FU for at least 20 weeks. The acquired drug resistance was tested periodically by determining the half maximal inhibitory concentration (IC50) of 5-FU through MTT cytotoxicity assays.
(§3) The experiments were performed using the wild-type and 5-FU-RCRC cells following our standardized protocols, as described previously[56],[57].

[5] = tested on: SW-620/5-FU-R cells; assay: Acquired 5-FU resistance (MTT cytotoxicity assay); type: cell-based; conditions: cells selected with increasing 5-FU for at least 20 weeks
Method: as §2, §3

[6] = tested on: HCT-116/5-FU-R cells; assay: Acquired 5-FU resistance (MTT cytotoxicity assay); type: cell-based; conditions: cells selected with increasing 5-FU for at least 20 weeks
Method: as §2, §3

[7] = tested on: HCT-116, SW-620, and HT-29 cells; assay: Western blotting of p-Vimentin/Vimentin after transient 5-FU treatment; type: cell-based; conditions: 5-FU 1 µM (sub-toxic), 24 h; range over HCT-116, SW-620, HT-29 cells; densitometry
From the text: Vimentin belongs to the family of intermediate filament proteins that are known to function in maintaining the shape as well as the integrity of the normal mesenchymal cells[33],[34]. However, it has been established to regulate the cell shape and migration capability during EMT, a phenomenon critical to metastasis of cancer cells[35],[36]. To investigate any plausible contribution of Vimentin to 5-FU resistance in CRC, we treated a panel of three epithelial colorectal carcinoma cell lines (HCT-116, SW-620, and HT-29) with increasing concentrations of the said drug, transiently (24 h). Western blots were generated for the whole-cell lysates obtained from the above set of experiments. Since the phosphorylated Vimentin is an important signal transducer during the EMT process, we analyzed p-Vimentin (ser38) as well as total Vimentin levels in these lysates.
Fig. 1 Vimentin activation and the onset of EMT in CRC cells transiently exposed to 5-FU, as well as in 5-FU-resistant population. […] F Quantification of the number of invaded cells per field from the above invasion assay experiment. n = 3, error bars: mean ± SD; ***P < 0.001. […]
We adhered to the previously published protocol for western blotting. […] Bradford assay was performed to quantify the protein concentration. […]

CC(=NNC(=N)N)c1ccc(NC(=O)c2cc3cccc([N+](=O)[O-])c3[nH]2)cc1 [PV1019, 7-nitro-1H-indole-2-carboxylic acid {4-[1-(guanidinohydrazone)-ethyl]-phenyl}-amide, reference compound]
number of invaded cells [1]: remarkable increase | Vimentin level (immunocytochemistry) [2]: increased Vimentin level

O=c1[nH]cc(F)c(=O)[nH]1 [5-FU, 5-fluorouracil]
lung metastases [3]: could not restrict the metastatic spread | average number of polyps ([3]; control group 16): 8 | mean tumor volume ([3]; saline control 820.6 mm^3): 231 mm^3 | acquired resistance up to (5-FU concentration) [4]: ≤ 45 µM | acquired resistance up to (5-FU concentration) [5]: ≤ 60 µM | acquired resistance up to (5-FU concentration) [6]: up to 50 µM | boost in p-Vimentin (ser38) [7]: 2–7.8 fold | increase in Vimentin expression level [7]: 2.1–8.5 fold
